Source: patent publication US8507489B2, “Bicyclic triazoles as protein kinase modulators” (SGX Pharmaceuticals, Inc., priority 2006, dated 2013)
pIC50: −log10 of the molar value.

Assays:
c-MET = c-MET (Homo sapiens, UniProt P08581); assay: MET luminescence-based enzyme assay (Kinase-Glo); type: biochemical
Experimental: The subscript designates positive or negative controls. The Z′ score for a robust screening assay should be ≧0.50. The typical threshold=μ+−3*σ+. Any value that falls below the threshold was designated a “hit”.
MET Luminescence-Based Enzyme Assay
MET kinase (see below), Kinase-Glo™ (Promega Cat#V6712).
Negative controls contained 10 μM staurosporine.

GTL16 cells = assay: 96-well XTT cell survival assay (GTL16 cells); type: cell-based
Experimental: GTL16 cells were maintained in DMEM Medium supplemented with 10% fetal bovine serum (FBS) 2 mM L-Glutamine and 100 units penicillin/100 μg streptomycin, at 37° C. in 5% CO2.
Compounds were tested in the following assays in duplicate.
96-well XTT assay (GTL16 cells): One day prior to assay the growth media was aspirated off and assay media was added to cells. On the day of the assay, the cells were grown in assay media containing various concentrations of compounds (duplicates) on a 96-well flat bottom plate for 72 hours at 37° C. in 5% CO2. The starting cell number was 5000 cells per well and volume was 120 μl. At the end of the 72-hour incubation, 40 μl of XTT labeling mixture (50:1 solution of sodium 3′-[1-(phenylaminocarbonyl)-3,4-tetrazolium]-bis (4-methoxy-6-nitro) benzene sulfonic acid hydrate and Electron-coupling reagent: PMS (N-methyl dibenzopyrazine methyl sulfate) were added to each well of the plate. After an additional 5 hours of incubation at 37° C., the absorbance reading at 450 nm with a background correction of 650 nm was measured with a spectrophotometer.

Chain of c-MET (P08581 1078-1345 limits assumed): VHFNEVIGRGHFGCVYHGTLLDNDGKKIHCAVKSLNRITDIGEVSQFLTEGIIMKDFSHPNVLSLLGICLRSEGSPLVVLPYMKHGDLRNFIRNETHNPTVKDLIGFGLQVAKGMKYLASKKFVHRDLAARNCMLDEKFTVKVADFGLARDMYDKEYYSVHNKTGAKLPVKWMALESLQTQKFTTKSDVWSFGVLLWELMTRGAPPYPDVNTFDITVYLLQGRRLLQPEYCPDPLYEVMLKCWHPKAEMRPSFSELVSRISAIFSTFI

Molecule	pIC50 (c-MET)	pIC50 (GTL16 cells; Homo sapiens, GTL 16, 72 hours)	pIC50 (GTL16 cells; 72 hours)
Fc1cccc(-c2ccc3nnc(Sc4ccc5nncn5c4)n3n2)c1 [Compound 7, 6-(3-Fluoro-phenyl)-3-([1,2,4]triazolo[4,3-a]pyridin-6-ylsulfanyl)-[1,2,4]triazolo[4,3-b]pyridazine]	5.00 to 6.00	5.00 to 6.00	
Cc1ccc2nnc(Sc3ccc4ncc(-c5cnn(C6CN(C)C6)c5)cc4c3)n2n1 [Compound 63, 3-[1-(1-Methyl-azetidin-3-yl)-1H-pyrazol-4-yl]-6-(6-methyl-[1,2,4]triazolo[4,3-b]pyridazin-3-ylsulfanyl)-quinoline]	> 7.00	≥ 7.00	
Cn1cc(-c2ccc3nnc(Sc4ccc5ncncc5c4)n3n2)cn1 [Compound 12, 6-[6-(1-Methyl-1H-pyrazol-4-yl)-[1,2,4]triazolo[4,3-b]pyridazin-3-ylsulfanyl]-quinazoline]	6.00 to 7.00	6.00 to 7.00	
CCN1CC(Cn2cc(-c3cnc4ccc(Sc5nnc6ccc(C)nn56)cc4c3)cn2)C1 [Compound 67, 3-[1-(1-Ethyl-azetidin-3-ylmethyl)-1H-pyrazol-4-yl]-6-(6-methyl-[1,2,4]triazolo[4,3-b]pyridazin-3-ylsulfanyl)-quinoline]	> 7.00	≥ 7.00	
Cc1ccc2nnc(Sc3ccc4ncc(-c5cnn(CCN6CCOCC6)c5)cc4c3)n2n1 [Compound 44, 6-(6-Methyl-[1,2,4]triazolo[4,3-b]pyridazin-3-ylsulfanyl)-3-[1-(2-morpholin-4-yl-ethyl)-1H-pyrazol-4-yl]-quinoline]	> 7.00	≥ 7.00	
Fc1cccc(-c2ccc3nnc(Sc4ccc5ncccc5c4)n3n2)c1 [Compound 5, 6-[6-(3-Fluoro-phenyl)-[1,2,4]triazolo[4,3-b]pyridazin-3-ylsulfanyl]-quinoline]	> 7.00	≥ 7.00	
(2:1) mixture of 3-(7-Methyl-benzothiazol-6-ylsulfanyl)-6-(1-methyl-1H-pyrazol-4-yl)-[1,2,4]triazolo[4,3-b]pyridazine and 3-(5-Methyl-benzothiazol-6-ylsulfanyl)-6-(1-methyl-1H-pyrazol-4-yl)-[1,2,4]triazolo[4,3-b]pyridazine [Compound 8]	> 7.00		≥ 7.00
CNC(=O)c1ccc(-c2ccc3nnc(Sc4ccc5ncccc5c4)n3n2)cc1F [Compound 11, 2-Fluoro-N-methyl-4-[3-(quinolin-6-ylsulfanyl)-[1,2,4]triazolo[4,3-b]pyridazin-6-yl]-benzamide]	> 7.00	6.00 to 7.00	
CCn1cc(-c2cnc3ccc(Sc4nnc5ccc(C)nn45)cc3c2)cn1 [Compound 66, 3-(1-Ethyl-1H-pyrazol-4-yl)-6-(6-methyl-[1,2,4]triazolo[4,3-b]pyridazin-3-ylsulfanyl)-quinoline]	> 7.00	≥ 7.00	
Cc1cc2ncccc2cc1Sc1nnc2ccc(-c3cnn(C)c3)nn12 [Compound 16, 7-Methyl-6-[6-(1-methyl-1H-pyrazol-4-yl)-[1,2,4]triazolo[4,3-b]pyridazin-3-ylsulfanyl]-quinoline]	> 7.00	≥ 7.00	
Fc1cccc(-c2cnc3nnc(Sc4ccc5ncccc5c4)n3n2)c1 [Compound 9, 6-[6-(3-Fluoro-phenyl)-[1,2,4]triazolo[4,3-b][1,2,4]triazin-3-ylsulfanyl]-quinoline]	> 7.00	≥ 7.00	
c1ccc(-c2ccc3nnc(Sc4ccc5ncccc5c4)n3n2)cc1 [Compound 1, 6-(6-Phenyl-[1,2,4]triazolo[4,3-b]pyridazin-3-ylsulfanyl)-quinoline]	> 7.00	≥ 7.00	
Cc1ccc2nnc(Sc3ccc4ncc(-c5cnn(CC(=O)O)c5)cc4c3)n2n1 [Compound 42, {4-[6-(6-Methyl-[1,2,4]triazolo[4,3-b]pyridazin-3-ylsulfanyl)-quinolin-3-yl]-pyrazol-1-yl}-acetic acid]	> 7.00	5.00 to 6.00	
c1cnc2ccc(Sc3nnc4ccc(-c5cn[nH]c5)nn34)cc2c1 [Compound 39, 6-[6-(1H-Pyrazol-4-yl)-[1,2,4]triazolo[4,3-b]pyridazin-3-ylsulfanyl]-quinoline]	> 7.00	6.00 to 7.00	
Cn1cc(-c2ccc3nnc(Sc4cc5scnc5cc4F)n3n2)cn1 [Compound 15, 3-(5-Fluoro-benzothiazol-6-ylsulfanyl)-6-(1-methyl-1H-pyrazol-4-yl)-[1,2,4]triazolo[4,3-b]pyridazine]	> 7.00	≥ 7.00	
Cn1cc(-c2cnc3ccc(Sc4nnc5ccc(-c6cnn(C)c6)nn45)cc3c2)cn1 [Compound 40, 3-(1-Methyl-1H-pyrazol-4-yl)-6-[6-(1-methyl-1H-pyrazol-4-yl)-[1,2,4]triazolo[4,3-b]pyridazin-3-ylsulfanyl]-quinoline]	> 7.00	≥ 7.00	
Cn1cc(-c2ccc3nnc(Sc4ccc5ncn(C)c5c4)n3n2)cn1 [Compound 25, 3-(3-Methyl-3H-benzoimidazol-5-ylsulfanyl)-6-(1-methyl-1H-pyrazol-4-yl)-[1,2,4]triazolo[4,3-b]pyridazine]	> 7.00	≥ 7.00	
CNc1ccc2nnc(Sc3ccc4ncc(-c5cnn(C)c5)cc4c3)n2n1 [Compound 68, Methyl-{3-[3-(1-methyl-1H-pyrazol-4-yl)-quinolin-6-ylsulfanyl]-[1,2,4]triazolo[4,3-b]pyridazin-6-yl}-amine]	> 7.00	≥ 7.00	
CCc1ccnc2ccc(Sc3nnc4ccc(-c5cnn(C)c5)nn34)cc12 [Compound 60, 4-Ethyl-6-[6-(1-methyl-1H-pyrazol-4-yl)-[1,2,4]triazolo[4,3-b]pyridazin-3-ylsulfanyl]-quinoline]	> 7.00	≥ 7.00	
Cc1ccc2nnc(Sc3cc4cc(-c5cnn(C)c5)cnc4cc3F)n2n1 [Compound 52, 7-Fluoro-3-(1-methyl-1H-pyrazol-4-yl)-6-(6-methyl-[1,2,4]triazolo[4,3-b]pyridazin-3-ylsulfanyl)-quinoline]	> 7.00	≥ 7.00	
Cn1cc(-c2ccc3nnc(Sc4ccc5nccc(OCCO)c5c4)n3n2)cn1 [Compound 50, 2-{6-[6-(1-Methyl-1H-pyrazol-4-yl)-[1,2,4]triazolo[4,3-b]pyridazin-3-ylsulfanyl]-quinolin-4-yloxy}-ethanol]	> 7.00	≥ 7.00	
Cc1ccc2nnc(Sc3ccc4ncc(-c5cnn(C6CNC6)c5)cc4c3)n2n1 [Compound 62, 3-(1-Azetidin-3-yl-1H-pyrazol-4-yl)-6-(6-methyl-[1,2,4]triazolo[4,3-b]pyridazin-3-ylsulfanyl)-quinoline]	> 7.00	≥ 7.00	
Fc1cccc(-c2ccc3nnc(Sc4ccc5ncsc5c4)n3n2)c1 [Compound 6, 3-(Benzothiazol-6-ylsulfanyl)-6-(3-fluoro-phenyl)-[1,2,4]triazolo[4,3-b]pyridazine]	6.00 to 7.00	6.00 to 7.00	
Cc1ccc2nnc(Sc3ccc4ncc(-c5cnn(CC6CN(C(=O)OC(C)(C)C)C6)c5)cc4c3)n2n1 [Compound 65, 3-{4-[6-(6-Methyl-[1,2,4]triazolo[4,3-b]pyridazin-3-ylsulfanyl)-quinolin-3-yl]-pyrazol-1-ylmethyl}-azetidine-1-carboxylic acid tert-butyl ester]	> 7.00	≥ 7.00	
Cc1ccc2nnc(Sc3ccc4ncc(-c5cnn(C)c5)cc4c3F)n2n1 [Compound 56, 5-Fluoro-3-(1-methyl-1H-pyrazol-4-yl)-6-(6-methyl-[1,2,4]triazolo[4,3-b]pyridazin-3-ylsulfanyl)-quinoline]	> 7.00	≥ 7.00	
CCc1ccc2nnc(Sc3ccc4ncc(-c5cnn(C)c5)cc4c3)n2n1 [Compound 58, 6-(6-Ethyl-[1,2,4]triazolo[4,3-b]pyridazin-3-ylsulfanyl)-3-(1-methyl-1H-pyrazol-4-yl)-quinoline]	> 7.00	≥ 7.00	
Cn1cc(-c2ccc3nnc(Sc4ccc5ncccc5c4F)n3n2)cn1 [Compound 55, 5-Fluoro-6-[6-(1-methyl-1H-pyrazol-4-yl)-[1,2,4]triazolo[4,3-b]pyridazin-3-ylsulfanyl]-quinoline]	> 7.00	≥ 7.00	
Cn1cc(-c2cnc3[nH]cc(Sc4nnc5ccc(-c6cnn(C)c6)nn45)c3c2)cn1 [Compound 46, 6-(1-Methyl-1H-pyrazol-4-yl)-3-[5-(1-methyl-1H-pyrazol-4-yl)-1H-pyrrolo[2,3-b]pyridin-3-ylsulfanyl]-[1,2,4]triazolo[4,3-b]pyridazine]	> 7.00	≥ 7.00	
CCc1ccc2nnc(Sc3ccc4ncc(-c5cnn(C6CN(CC)C6)c5)cc4c3)n2n1 [Compound 70, 3-[1-(1-Ethyl-azetidin-3-yl)-1H-pyrazol-4-yl]-6-(6-ethyl-[1,2,4]triazolo[4,3-b]pyridazin-3-ylsulfanyl)-quinoline]	> 7.00	≥ 7.00	
